From patent US20060121449A1, “Method for selection of compounds which inhibit clonal cell growth and use thereof” (priority 2002, published 2006)
Entries after “also recorded” stand apart in the source; their conditions may differ. Like-named read-outs stand apart in the source and are kept apart here.

How the values were obtained:
[1] = tested on: polyoma virus transformed BHK21/c13 cells, line S100T1; assay: Collocation inhibition test: clonal growth in sparsely and densely seeded areas of a cell density gradient of S100T1 cells in soft agar (Exp 13, 17, 19-26); conditions: for Resulting clonal growth of treated cultures: Experiment 26, read after 24 hours;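 as to all read-outs here: soft agar cultures in 24-well plates with a cell density gradient in the top layer, compounds applied from DMSO stocks, clonal growth scored in sparse versus dense areas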;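 as to clonal growth: grades from − to +++ rise with clonal growth while − and +− count as negative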
Ehrlich ascites tumour = conditions: for Rescue of mice from transplanted Ehrlich tumour: suboptimal (moderate) dose alone, started the day after transplantation
Description: Tumour cells harvested from ascitic mouse were mainly solitary.
The experiment describes transplantation of the malignant mouse Ehrlich ascites tumour to two adult male mice (NMRI/Bom). Each of them received 100000 cells intraperitonally. One mouse was treated two times a week with 4-OH-OPB intraperitonally.
Cells were injected 90 minutes after the addition of 4-OH-OPB to the suspension. The control received the same cell suspension without 4-OH-OPB.
At the same time, dilutions of 4-OH-OPB were injected intraperitonally to the transplanted mice in order to find the smallest active dose.
The cells from ascites in the untreated control mouse was frozen on serum with 10% DMSO. The cells were thawed in water of 37° C., diluted in serum, and pelleted by low speed centrifugation after the addition of 2 ml FBS, to remove DMSO.
Each animal received such cells suspended in portions of 1 ml in RPMI (pH˜6.9).
The frozen and thawed Ehrlich ascites cells are diluted in a volume of 1 ml RPMI (pH˜6.9) for each animal. No calf serum was added to the medium to avoid immunisation of the mice.
Cell number: 90000 tumour cells in 0.7 ml RPMI were injected intraperitonally to each animal.
The total cell number in the ampoule was 7.5 million cells. The cells were thawed, and 2 ml FBS was added before low speed centrifugation. […] Than separate vessels were prepared for each animal. The cell tube for animal number 3 received Colchicine as indicated in the table on day 0 one hour before the cells were injected.
After mixing the same volume was transferred from this tube to the last tube.
The content of the last two tubes was injected intraperitonally to each of the mice number 1 and 2 respectively.

[2] = Exp 7, 1.62 μl 20 mM i.p. two times a week, 45.5 at day 0
[3] = Exp 8 mouse 1: 1.26 μl 20 mM i.p. from day 0 (42 μM i.p.)
[4] = Exp 8 mouse 2: 0.42 μl 20 mM i.p. from day 0 (14 μM i.p.)
[5] = Exp 8 mouse 3: 0.14 μl 20 mM i.p. from day 0 (4.7 μM i.p.)
[6] = Exp 8 mouse 4: 0.047 μl 20 mM i.p. from day 0 (1.6 μM i.p.)
[7] = Exp 8 mouse 6: 1.13 μl 20 mM i.p., first injection 24 h after tumour (37.7 μM i.p.)
[8] = Exp 8 mouse 7: 1.09 μl 20 mM i.p., first injection 3 days after tumour
[9] = Exp 8 mouse 7: 1.09 μl 20 mM i.p., first injection 3 days after tumour (36.3 μM i.p.)
[10] = Exp 8 mouse 7: 1.09 μl 20 mM i.p., first injection 3 days after tumour (36.3 μM i.p.), listed as 4-OH—OPB

With `CCCCC1(O)C(=O)N(c2ccccc2)N(c2ccc(O)cc2)C1=O` (stereo not shown) [4-OH-OPB, 4-butyl-4-hydroxy-2(p-hydroxyphenyl)-1-phenyl-3,5-pyrazolidinedione] the Clonal growth ([1]; Experiment 22, H: area with high cell density, High concentration) was “−”, the Clonal growth ([1]; Experiment 22, H: area with high cell density, Low concentration) was “++” and the Clonal growth ([1]; Experiment 22, H: area with high cell density, Medium concentration) was “(+)”. The Clonal growth ([1]; Experiment 22, L: area with low cell density, High concentration) was “−”, the Clonal growth ([1]; Experiment 22, L: area with low cell density, Low concentration) was “−” and the Clonal growth ([1]; Experiment 22, L: area with low cell density, Medium concentration) was “−”. The Clonal growth ([1]; Experiment 23, A (area with high cell density), High concentration, 48 hours) was “(+)”, the Clonal growth ([1]; Experiment 23, A (area with high cell density), Low concentration, 48 hours) was “++(+)” and the Clonal growth ([1]; Experiment 23, A (area with high cell density), Medium concentration, 48 hours) was “+”. The Clonal growth ([1]; Experiment 23, B (area with low cell density), High concentration, 48 hours) was “−”, the Clonal growth ([1]; Experiment 23, B (area with low cell density), Low concentration, 48 hours) was “−” and the Clonal growth ([1]; Experiment 23, B (area with low cell density), Medium concentration, 48 hours) was “−”. The Clonal growth ([1]; Experiment 24, H: area with high cell density, High concentration, 48 hours) was “+”, the Clonal growth ([1]; Experiment 24, H: area with high cell density, Low concentration, 48 hours) was “++(+)” and the Clonal growth ([1]; Experiment 24, H: area with high cell density, Medium concentration, 48 hours) was “+”. The Clonal growth ([1]; Experiment 24, H: area with high cell density, X-low concentration, 48 hours) was “+(+)”, the Clonal growth ([1]; Experiment 24, H: area with high cell density, XX-low concentration, 48 hours) was “++” and the Clonal growth ([1]; Experiment 24, L: area with low cell density, High concentration, 48 hours) was “−”. The Clonal growth ([1]; Experiment 24, L: area with low cell density, Low concentration, 48 hours) was “−”, the Clonal growth ([1]; Experiment 24, L: area with low cell density, Medium concentration, 48 hours) was “−” and the Clonal growth ([1]; Experiment 24, L: area with low cell density, X-low concentration, 48 hours) was “−”. For the same molecule, the Clonal growth ([1]; Experiment 24, L: area with low cell density, XX-low concentration, 48 hours) was “(+)”, the Clonal growth ([1]; Experiment 25, H: area with high cell density, High concentration, after 48 hours incubation) was “(+)” and the Clonal growth ([1]; Experiment 25, H: area with high cell density, Low concentration, after 48 hours incubation) was “++(+)”. For the same molecule, the Clonal growth ([1]; Experiment 25, H: area with high cell density, Medium concentration, after 48 hours incubation) was “++”, the Clonal growth ([1]; Experiment 25, H: area with high cell density, X-low concentration, after 48 hours incubation) was “++” and the Clonal growth ([1]; Experiment 25, L: area with low cell density, High concentration, after 48 hours incubation) was “−”. For the same molecule, the Clonal growth ([1]; Experiment 25, L: area with low cell density, Low concentration, after 48 hours incubation) was “−”, the Clonal growth ([1]; Experiment 25, L: area with low cell density, Medium concentration, after 48 hours incubation) was “−” and the Clonal growth ([1]; Experiment 25, L: area with low cell density, X-low concentration, after 48 hours incubation) was “++”. For the same molecule, the “Resulting clonal growth of treated cultures” value (shortened to “Resulting clonal growth”) ([1]; H: area with high cell density, High concentration) was “++”, the “Resulting clonal growth” value ([1]; H: area with high cell density, Low concentration) was “++” and the “Resulting clonal growth” value ([1]; H: area with high cell density, Medium concentration) was “++”. The “Resulting clonal growth” value ([1]; L: area with low cell density, High concentration) was “−”, the “Resulting clonal growth” value ([1]; L: area with low cell density, Low concentration) was “(+)” and the “Resulting clonal growth” value ([1]; L: area with low cell density, Medium concentration) was “−”. For the same molecule, the “Control of metastatic cells leaving tumour” value ([1]; ability of cells to leave a tumour, grow and infiltrate locally or grow in sparsely seeded areas, concluded from Exp 17) was “yes”, the “Control of settlement of metastatic cells” value ([1]; single cells or very few cells spread to distant sites, concluded from Exp 17) was “completely” and the “Toxicity for body or dense cell populations” value ([1]; supposed main advantages or disadvantages if used in cancer treatment, concluded from Exp 17) was “none or small”. The “Tolerating long duration of treatment” value ([1]; supposed, if used in cancer treatment) was “yes”, the “Weight of treated mouse, day 14” value (Ehrlich ascites tumour; [2]) was 42.6 g and the “Weight of treated mouse, day 18” value (Ehrlich ascites tumour; [2]) was 44.3 g. For the same molecule, the “Tumour findings in treated mouse after 19 days” value (Ehrlich ascites tumour; Exp 7, 1.62 μl 20 mM i.p. two times a week, 100000 Ehrlich cells i.p.) was “No tumour was detected; also recorded: completely normal without any palpable tumour or signs of ascites or anaemia; also recorded: no pathological signs; also recorded: no tumour or ascites observable”, the Ascites (Ehrlich ascites tumour; Exp 7 treated animal, day 19) was 0 grams and the “Fibrinous material under diaphragm” value (Ehrlich ascites tumour; Exp 7 treated animal, day 19) was 0 grams. For the same molecule, the “Size of organs: Hart” value (Ehrlich ascites tumour; Exp 7 treated animal, day 19) was 0.20 grams, the “Size of organs: Kidneys” value (Ehrlich ascites tumour; Exp 7 treated animal, day 19) was 0.57 grams and the “Size of organs: Liver” value (Ehrlich ascites tumour; Exp 7 treated animal, day 19) was 2.38 grams. The “Size of organs: Lungs” value (Ehrlich ascites tumour; Exp 7 treated animal, day 19) was 0.3 grams, the “Size of organs: Omentum” value (Ehrlich ascites tumour; Exp 7 treated animal, day 19) was 2.36 grams and the “Size of organs: Spleen” value (Ehrlich ascites tumour; Exp 7 treated animal, day 19) was 0.184 grams. The Tumour in groin (Ehrlich ascites tumour; Exp 7 treated animal, day 19) was 0 grams, the “Dose that did not cure when begun the next day or 3 days after transplantation, relative to minimum curative dose” value (Ehrlich ascites tumour; Exp 8) was “about 9 times” and the “Smallest effective dose, in extracellular fluid” value (Ehrlich ascites tumour; Exp 8) was 0.37 µM. The “Start of treatment needed for complete rescue” value (Ehrlich ascites tumour; Exp 8) was “The treatment had to start immediately”, the “Outcome when therapy started 24 hours after transplantation or later” value (Ehrlich ascites tumour; Exp 8, doses in abdomen of 36-38 μM) was “development of ascites or ascites with solid tumour in addition” and the “Smallest effective (inhibiting) concentration in the peritoneum” value (Ehrlich ascites tumour; Exp 8, injected together with the cells and then twice a week) was “dose was 4.8 μM”. The “Day 15 status” value (Ehrlich ascites tumour; [3]) was “healthy”, the “Day 15 weight” value (Ehrlich ascites tumour; [3]) was 33.9 gram and the “Day 15 weight/initial weight” value (Ehrlich ascites tumour; [3]) was 0.96. The “Result (tumour growth)” value (Ehrlich ascites tumour; [3]) was “No tumour”, the “Section day 17” value (Ehrlich ascites tumour; [3]) was “No pathology found, neither ascites nor solid tumours” and the “Section day 17” value (Ehrlich ascites tumour; Exp 8 mouse 1: 1.26 μl 20 mM i.p. from day 0 (42 μM i.p.), listed as 4-OH—OPB) was “healthy, no tumour”. For the same molecule, the “Day 15 status” value (Ehrlich ascites tumour; [4]) was “healthy”, the “Day 15 weight” value (Ehrlich ascites tumour; [4]) was 38.7 gram and the “Day 15 weight/initial weight” value (Ehrlich ascites tumour; [4]) was 0.97. The “Section day 17” value (Ehrlich ascites tumour; [4]) was “No pathology found, neither ascites nor solid tumours”, the “Section day 17” value (Ehrlich ascites tumour; Exp 8 mouse 2: 0.42 μl 20 mM i.p. from day 0 (14 μM i.p.), listed as 4-OH—OPB) was “healthy, no tumour” and the “Day 15 status” value (Ehrlich ascites tumour; [5]) was “healthy”. The “Day 15 weight” value (Ehrlich ascites tumour; [5]) was 29.3 gram, the “Day 15 weight/initial weight” value (Ehrlich ascites tumour; [5]) was 1.1 and the “Section day 17” value (Ehrlich ascites tumour; [5]) was “No pathology was found, neither ascites nor solid tumours”. For the same molecule, the “Section day 17” value (Ehrlich ascites tumour; Exp 8 mouse 3: 0.14 μl 20 mM i.p. from day 0 (4.7 μM i.p.), listed as 4-OH—OPB) was “healthy, no tumour”, the “Ascites relative to control” value (Ehrlich ascites tumour; [6]) was “Ascites (0.66 of contr.) + solid” and the “Day 15 status” value (Ehrlich ascites tumour; [6]) was “Ascites”. For the same molecule, the “Day 15 weight” value (Ehrlich ascites tumour; [6]) was 37.4 gram, the “Day 15 weight/initial weight” value (Ehrlich ascites tumour; [6]) was 1.33 and the “Result (tumour growth)” value (Ehrlich ascites tumour; [6]) was “Lens-sized tumour at injection site in left abdominal wall”. The “Section day 17: ascites” value (Ehrlich ascites tumour; Exp 8 mouse 4: 0.047 μl 20 mM i.p. from day 0 (1.6 μM i.p.), control 6.8 ml) was 4.5 mL, the “Section day 17: ascites” value (Ehrlich ascites tumour; Exp 8 mouse 4: 0.047 μl 20 mM i.p. from day 0 (1.6 μM i.p.), control 6.8 ml, listed as 4-OH—OPB) was 4.5 ml ascites and the “Result (tumour growth)” value (Ehrlich ascites tumour; Exp 8 mouse 4: 0.047 μl 20 mM i.p. from day 0 (1.6 μM i.p.), listed as 4-OH—OPB) was “Ascites (0.66 of contr.) + solid”. For the same molecule, the “Ascites relative to control” value (Ehrlich ascites tumour; [7]) was “Ascites (0.47 of contr.) + solid”, the “Day 15 status” value (Ehrlich ascites tumour; [7]) was “Healthy” and the “Day 15 weight” value (Ehrlich ascites tumour; [7]) was 34.5 gram. The “Day 15 weight/initial weight” value (Ehrlich ascites tumour; [7]) was 1.09, the “Result (tumour growth)” value (Ehrlich ascites tumour; [7]) was “At injection site circular branched tumour” and the “Section day 17: ascites” value (Ehrlich ascites tumour; Exp 8 mouse 6: 1.13 μl 20 mM i.p., first injection 24 h after tumour (37.7 μM i.p.), control 6.8 ml) was 3.15 mL. The “Section day 17: ascites” value (Ehrlich ascites tumour; Exp 8 mouse 6: 1.13 μl 20 mM i.p., first injection 24 h after tumour (37.7 μM i.p.), control 6.8 ml, listed as 4-OH—OPB) was 3.2 ml ascites, inj. site, the “Result (tumour growth)” value (Ehrlich ascites tumour; Exp 8 mouse 6: 1.13 μl 20 mM i.p., first injection 24 h after tumour (37.7 μM i.p.), listed as 4-OH—OPB) was “Ascites (0.47 of contr.) + solid” and the “Tumour size, Day 8” value (Ehrlich ascites tumour; [8]) was “Tumour = grain”. The “Tumour size, Day 10” value (Ehrlich ascites tumour; [8]) was “Tumour > grain”, the “Ascites relative to control” value (Ehrlich ascites tumour; [9]) was 0.00022 % of contr and the “Day 15 status” value (Ehrlich ascites tumour; [9]) was “lens-sized”. The “Day 15 weight” value (Ehrlich ascites tumour; [9]) was 30.5 gram, the “Day 15 weight/initial weight” value (Ehrlich ascites tumour; [9]) was 1.00 and the “Section day 17: ascites” value (Ehrlich ascites tumour; [9]) was 0.015 mL. For the same molecule, the “Section day 17: solid tumour” value (Ehrlich ascites tumour; [9]) was “pea-sized”, the “Result (tumour growth)” value (Ehrlich ascites tumour; [10]) was “Ascites; also recorded: contr.) + solid” and the “Section day 17: ascites” value (Ehrlich ascites tumour; [10]) was “site, 15 μl ascites,”. For the same molecule, the “Section day 17: solid tumour” value (Ehrlich ascites tumour; [10]) was “Pea-size tumour at inj”, the “tumour in abdominal wall, findings on section” value (Ehrlich ascites tumour; Exp 18, at killing, control 2 × 3 mm tumour) was “Lens sized” and the “ascites with Ehrlich cells, findings on section” value (Ehrlich ascites tumour; Exp 18, at killing, control 4 ml) was 0.1 mL. For the same molecule, the “day 14 status” value (Ehrlich ascites tumour; Exp 18, day 14 after ip transplantation, mouse 1 killed, mice 2 and 3 marked '?') was “Ascites”, the “weight gain in %” value (Ehrlich ascites tumour; Exp 18, one mouse each, ip: mouse 1 4-OH—OPB from day 1, mouse 2 Etoposide + 4-OH—OPB from day 1, mouse 3 Colchicine from day 0, control mouse 42.4) was 32.3% and the “Rescue of mice from transplanted Ehrlich tumour” value (Ehrlich ascites tumour; Exp 18) was “missing cure”. For the same molecule, the “Rescue of mice from transplanted Ehrlich tumour” value (Ehrlich ascites tumour; Exp 18, listed as 4-OH—OPB) was “not rescued. Colchicine alone in high dose did”.
